Values quoted from earlier work, collected in patent publication US20170079478A1, “NITROUS OXIDE MIXTURES AND METHODS OF USE” (KORVATA INC., priority 2014, published 2017).
Read-outs that look alike come from different tables or passages of the source.

Assays:
[1] = compared with nitrogen standardized to 1.0

Compound | lipid solubility (0° C. and 15 psi) | lipid solubility (20° C. and 15 psi) | RNP (Relative Narcotic Potency) [1]
[Ar] [Ar, argon] | 300 µg/mL | 250 µg/mL | 2.3
[N-]=[N+]=O [Example N2O, nitrous oxide] | – | – | 39
[He] [He, helium] | – | – | 0.045
[Kr] [Kr, krypton] | – | – | 7.1
[Ne] [Ne, neon] | – | – | 0.3
[Xe] [Xe, xenon] | – | – | 25.6
